Assay results as given in PubChem BioAssay (NCI).
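Interpolation was linear, between the two tested concentrations surrounding the appropriate level; five concentrations were tested over 48 hours in 96-well plates. TGI denotes the concentration required for complete inhibition of growth.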

Legend:
Experiment in all cases: NCI tumour cell line growth inhibition, 48 h
786-0 renal = test system: 786-0 renal
A549 NSCLC = test system: A549 NSCLC
ACHN renal = test system: ACHN renal
CAKI-1 renal = test system: CAKI-1 renal
CCRF-CEM leukemia = test system: CCRF-CEM leukemia
COLO 205 colon = test system: COLO 205 colon
DU-145 prostate = test system: DU-145 prostate
EKVX NSCLC = test system: EKVX NSCLC
HCC-2998 colon = test system: HCC-2998 colon
HCT-116 colon = test system: HCT-116 colon
HCT-15 colon = test system: HCT-15 colon
HL-60(TB) leukemia = test system: HL-60(TB) leukemia
HOP-62 NSCLC = test system: HOP-62 NSCLC
HOP-92 NSCLC = test system: HOP-92 NSCLC
HS 578T breast = test system: HS 578T breast
HT29 colon = test system: HT29 colon
IGROV1 ovarian = test system: IGROV1 ovarian
K-562 leukemia = test system: K-562 leukemia
KM12 colon = test system: KM12 colon
LOX IMVI melanoma = test system: LOX IMVI melanoma
M14 melanoma = test system: M14 melanoma
MALME-3M melanoma = test system: MALME-3M melanoma
MCF7 breast = test system: MCF7 breast
MDA-MB-231 breast = test system: MDA-MB-231 breast
MDA-MB-435 = test system: MDA-MB-435
MDA-N = test system: MDA-N
MOLT-4 leukemia = test system: MOLT-4 leukemia
NCI-H226 lung = test system: NCI-H226 lung
NCI-H23 lung = test system: NCI-H23 lung
NCI-H460 lung = test system: NCI-H460 lung
NCI/ADR-RES ovarian = test system: NCI/ADR-RES ovarian
OVCAR-3 ovarian = test system: OVCAR-3 ovarian
OVCAR-4 ovarian = test system: OVCAR-4 ovarian
OVCAR-5 ovarian = test system: OVCAR-5 ovarian
OVCAR-8 ovarian = test system: OVCAR-8 ovarian
PC-3 prostate = test system: PC-3 prostate
RPMI-8226 leukemia = test system: RPMI-8226 leukemia
SF-268 CNS = test system: SF-268 CNS
SF-295 CNS = test system: SF-295 CNS
SF-539 CNS = test system: SF-539 CNS
SK-MEL-2 melanoma = test system: SK-MEL-2 melanoma
SK-MEL-28 melanoma = test system: SK-MEL-28 melanoma
SK-MEL-5 melanoma = test system: SK-MEL-5 melanoma
SN12C renal = test system: SN12C renal
SNB-75 CNS = test system: SNB-75 CNS
SR leukemia = test system: SR leukemia
SW-620 colon = test system: SW-620 colon
T-47D breast = test system: T-47D breast
TK-10 renal = test system: TK-10 renal
U251 CNS = test system: U251 CNS
UACC-257 melanoma = test system: UACC-257 melanoma
UACC-62 melanoma = test system: UACC-62 melanoma
UO-31 renal = test system: UO-31 renal
NCI-H522 lung = test system: NCI-H522 lung
SK-OV-3 ovarian = test system: SK-OV-3 ovarian
A498 renal = test system: A498 renal
BT-549 breast = test system: BT-549 breast
RXF 393 renal = test system: RXF 393 renal
SNB-19 CNS = test system: SNB-19 CNS

## CN(C)CCCOCCn1c2c(c3ccccc31)CCCC2
786-0 renal
  TGI: 28.9 µM
A549 NSCLC
  TGI: 31.8 µM
ACHN renal
  TGI: 29 µM
CAKI-1 renal
  TGI: 31.5 µM
CCRF-CEM leukemia
  TGI: 30 µM
COLO 205 colon
  TGI: 32.3 µM
DU-145 prostate
  TGI: 67.7 µM
EKVX NSCLC
  TGI: 57.8 µM
HCC-2998 colon
  TGI: 28.4 µM
HCT-116 colon
  TGI: 28.8 µM
HCT-15 colon
  TGI: 30.5 µM
HL-60(TB) leukemia
  TGI: 20.7 µM
HOP-62 NSCLC
  TGI: 28.3 µM
HOP-92 NSCLC
  TGI: 46 µM
HS 578T breast
  TGI: 51.6 µM
HT29 colon
  TGI: 28.5 µM
IGROV1 ovarian
  TGI: 34 µM
K-562 leukemia
  TGI: 58.5 µM
KM12 colon
  TGI: 43.1 µM
LOX IMVI melanoma
  TGI: 31.5 µM
M14 melanoma
  TGI: 32.1 µM
MALME-3M melanoma
  TGI: 32.5 µM
MCF7 breast
  TGI: 31.5 µM
MDA-MB-231 breast
  TGI: 26.6 µM
MDA-MB-435
  TGI: 34.2 µM
MDA-N
  TGI: 29 µM
MOLT-4 leukemia
  TGI: 30.6 µM
NCI-H226 lung
  TGI: 63.5 µM
NCI-H23 lung
  TGI: 94.6 µM
NCI-H460 lung
  TGI: 28.9 µM
NCI/ADR-RES ovarian
  TGI: 35.2 µM
OVCAR-3 ovarian
  TGI: 53.1 µM
OVCAR-4 ovarian
  TGI: 44.3 µM
OVCAR-5 ovarian
  TGI: 30.5 µM
OVCAR-8 ovarian
  TGI: 35.9 µM
PC-3 prostate
  TGI: 32.6 µM
RPMI-8226 leukemia
  TGI: 33.9 µM
SF-268 CNS
  TGI: > 100 µM
SF-295 CNS
  TGI: 40.1 µM
SF-539 CNS
  TGI: 33.2 µM
SK-MEL-2 melanoma
  TGI: 26.5 µM
SK-MEL-28 melanoma
  TGI: 30.2 µM
SK-MEL-5 melanoma
  TGI: 25.3 µM
SN12C renal
  TGI: 32.5 µM
SNB-75 CNS
  TGI: 57.9 µM
SR leukemia
  TGI: 41 µM
SW-620 colon
  TGI: 37.5 µM
T-47D breast
  TGI: 49.7 µM
TK-10 renal
  TGI: 32.6 µM
U251 CNS
  TGI: 41.8 µM
UACC-257 melanoma
  TGI: 33.3 µM
UACC-62 melanoma
  TGI: 31.1 µM
UO-31 renal
  TGI: 36.9 µM

## CN(Cc1cnc2nc(N)nc(N)c2n1)c1ccc(C(=O)NC(CCC(=O)NCC(P(=O)(O)O)P(=O)(O)O)C(=O)O)cc1 (configuration not stated)
786-0 renal
  TGI: > 100 µM
A549 NSCLC
  TGI: > 100 µM
ACHN renal
  TGI: > 100 µM
COLO 205 colon
  TGI: > 100 µM
DU-145 prostate
  TGI: > 100 µM
EKVX NSCLC
  TGI: > 100 µM
HCT-116 colon
  TGI: > 100 µM
HCT-15 colon
  TGI: > 100 µM
HOP-62 NSCLC
  TGI: 68 µM
HS 578T breast
  TGI: > 100 µM
HT29 colon
  TGI: > 100 µM
IGROV1 ovarian
  TGI: > 100 µM
LOX IMVI melanoma
  TGI: > 100 µM
M14 melanoma
  TGI: > 100 µM
MALME-3M melanoma
  TGI: > 100 µM
MDA-MB-231 breast
  TGI: > 100 µM
MDA-N
  TGI: > 100 µM
MOLT-4 leukemia
  TGI: > 100 µM
NCI-H460 lung
  TGI: > 100 µM
NCI-H522 lung
  TGI: > 100 µM
NCI/ADR-RES ovarian
  TGI: > 100 µM
OVCAR-3 ovarian
  TGI: > 100 µM
OVCAR-4 ovarian
  TGI: > 100 µM
OVCAR-8 ovarian
  TGI: > 100 µM
PC-3 prostate
  TGI: > 100 µM
SF-268 CNS
  TGI: > 100 µM
SF-295 CNS
  TGI: > 100 µM
SK-MEL-2 melanoma
  TGI: > 100 µM
SK-MEL-5 melanoma
  TGI: > 100 µM
SK-OV-3 ovarian
  TGI: > 100 µM
SN12C renal
  TGI: > 100 µM
SNB-75 CNS
  TGI: > 100 µM
SR leukemia
  TGI: > 100 µM
SW-620 colon
  TGI: > 100 µM
T-47D breast
  TGI: > 100 µM
UACC-257 melanoma
  TGI: > 100 µM
UACC-62 melanoma
  TGI: > 100 µM

## C[C@]12CC[C@H](O)CC1=CC[C@@H]1[C@@H]2CC[C@]2(C)/C(=N/OCCN3CCCC3)CC[C@@H]12
786-0 renal
  TGI: 33.6 µM
A498 renal
  TGI: 29.8 µM
ACHN renal
  TGI: 68.2 µM
BT-549 breast
  TGI: 37.6 µM
CAKI-1 renal
  TGI: 40.7 µM
COLO 205 colon
  TGI: 30.1 µM
EKVX NSCLC
  TGI: 49.2 µM
HCC-2998 colon
  TGI: 37.1 µM
HCT-116 colon
  TGI: 28.6 µM
HCT-15 colon
  TGI: 28.8 µM
HL-60(TB) leukemia
  TGI: 23 µM
HOP-62 NSCLC
  TGI: 53.2 µM
HS 578T breast
  TGI: 83.8 µM
HT29 colon
  TGI: 10.3 µM
IGROV1 ovarian
  TGI: 34.3 µM
K-562 leukemia
  TGI: 21.6 µM
KM12 colon
  TGI: 26.9 µM
LOX IMVI melanoma
  TGI: 33.4 µM
MALME-3M melanoma
  TGI: 27.1 µM
MCF7 breast
  TGI: 44.9 µM
MDA-MB-231 breast
  TGI: 36.9 µM
MDA-MB-435
  TGI: 29.4 µM
MDA-N
  TGI: 34.3 µM
MOLT-4 leukemia
  TGI: 34.8 µM
NCI-H226 lung
  TGI: 30 µM
NCI-H23 lung
  TGI: 27.1 µM
NCI-H460 lung
  TGI: 24.8 µM
NCI-H522 lung
  TGI: 25.7 µM
NCI/ADR-RES ovarian
  TGI: 52.7 µM
OVCAR-3 ovarian
  TGI: 31.1 µM
OVCAR-4 ovarian
  TGI: 36 µM
OVCAR-5 ovarian
  TGI: 96.6 µM
OVCAR-8 ovarian
  TGI: 30.7 µM
PC-3 prostate
  TGI: 39.4 µM
RPMI-8226 leukemia
  TGI: 38.4 µM
RXF 393 renal
  TGI: 29.3 µM
SF-268 CNS
  TGI: > 100 µM
SF-295 CNS
  TGI: 40.6 µM
SF-539 CNS
  TGI: 28.1 µM
SK-MEL-2 melanoma
  TGI: 45.1 µM
SK-MEL-28 melanoma
  TGI: 30.6 µM
SK-MEL-5 melanoma
  TGI: 28 µM
SN12C renal
  TGI: 93.6 µM
SNB-19 CNS
  TGI: 72.1 µM
SNB-75 CNS
  TGI: 45 µM
SR leukemia
  TGI: 35.5 µM
SW-620 colon
  TGI: 31.1 µM
TK-10 renal
  TGI: 63.6 µM
U251 CNS
  TGI: 36.2 µM
UACC-257 melanoma
  TGI: 27.7 µM
UACC-62 melanoma
  TGI: 30.1 µM
UO-31 renal
  TGI: 35.3 µM
